Where “and” joins values, the source holds several entries; their conditions need not be identical. Equal values may be shown once.
Test system: collagen-induced arthritis
Experiment: Collagen-induced arthritis (CIA) model: clinical scores and paw volume
Format: in vivo, Lewis rats
Details: for Percent Inhibition in clinical score (Mean ± SD) / Percent Inhibition in paw volume (Mean ± SD): CIA rats; for Overall Clinical Score: individual animals 1-8
[1] = Day 0, L paw, group 5 CIA + Compound A 1 mg/kg
[2] = Day 0, L paw, group 6 CIA + Compound A 3 mg/kg
[3] = Day 0, L paw, group 7 CIA + Compound A 10 mg/kg
[4] = Day 0, R paw, group 5 CIA + Compound A 1 mg/kg
[5] = Day 0, R paw, group 6 CIA + Compound A 3 mg/kg
[6] = Day 0, R paw, group 7 CIA + Compound A 10 mg/kg
[7] = Day 0, CIA + Compound A 1 mg/kg
[8] = Day 0, CIA + Compound A 3 mg/kg
[9] = Day 0, CIA + Compound A 10 mg/kg
[10] = Day 6, L paw, group 5 CIA + Compound A 1 mg/kg
[11] = Day 6, L paw, group 6 CIA + Compound A 3 mg/kg
[12] = Day 6, L paw, group 7 CIA + Compound A 10 mg/kg
[13] = Day 6, R paw, group 5 CIA + Compound A 1 mg/kg
[14] = Day 6, R paw, group 6 CIA + Compound A 3 mg/kg
[15] = Day 6, R paw, group 7 CIA + Compound A 10 mg/kg
[16] = Day 6, CIA + Compound A 1 mg/kg
[17] = Day 6, CIA + Compound A 3 mg/kg
[18] = Day 6, CIA + Compound A 10 mg/kg
[19] = Day 12, L paw, group 5 CIA + Compound A 1 mg/kg
[20] = Day 12, L paw, group 6 CIA + Compound A 3 mg/kg
[21] = Day 12, L paw, group 7 CIA + Compound A 10 mg/kg
[22] = Day 12, R paw, group 5 CIA + Compound A 1 mg/kg
[23] = Day 12, R paw, group 6 CIA + Compound A 3 mg/kg
[24] = Day 12, R paw, group 7 CIA + Compound A 10 mg/kg
[25] = Day 12, CIA + Compound A 1 mg/kg
[26] = Day 12, CIA + Compound A 3 mg/kg

Cn1cc(-c2ccccc2)c(-c2cn(C)c(=O)c3[nH]c(-c4cnn(C(F)(F)F)c4)cc23)cc1=O [Compound A, 6-methyl-4-(1-methyl-2-oxo-5-phenyl-1,2-dihydropyridin-4-yl)-2-(1-(trifluoromethyl)-1H-pyrazol-4-yl)-1,6-dihydro-7H-pyrrolo[2,3-c]pyridin-7-one]
Reduction in clinical score compared to CIA+placebo (10 mg/kg PO QD, Day 21): > 70% | Reduction in paw volume compared to CIA+placebo (10 mg/kg PO QD, Day 21): > 70% | Anti-inflammatory activity versus CIA placebo and CIA+10 mg/kg GSK620 (1, 3, and 10 mg/kg): superior (statistically) | Percent Inhibition in clinical score (Mean ± SD) (1 mg/kg): 60 ± 21% | Percent Inhibition in paw volume (Mean ± SD) (1 mg/kg): 58 ± 23% | Percent Inhibition in clinical score (Mean ± SD) (3 mg/kg): 70 ± 8% | Percent Inhibition in paw volume (Mean ± SD) (3 mg/kg): 75 ± 12% | Average animal paw volume [1]: 1.33 mL | Average animal paw volume percent change (%) [1]: 0.00% | Average animal paw volume [2]: 1.32 mL | Average animal paw volume percent change (%) [2]: 0.00% | Average animal paw volume [3]: 1.32 mL | Average animal paw volume percent change (%) [3]: 0.00% | Average animal paw volume [4]: 1.33 mL | Average animal paw volume percent change (%) [4]: 0.00% | Average animal paw volume [5]: 1.31 mL | Average animal paw volume percent change (%) [5]: 0.00% | Average animal paw volume [6]: 1.31 mL | Average animal paw volume percent change (%) [6]: 0.00% | Average detailed clinical score, left forelimb [7]: 0.00 | Average detailed clinical score, left hind limb [7]: 0.00 | Average detailed clinical score, right forelimb [7]: 0.00 | Average detailed clinical score, right hind limb [7]: 0.00 | Average detailed clinical score, score [7]: 0.00 | Average overall clinical score [7]: 0 | Overall Clinical Score [7]: 0 | Average detailed clinical score, left forelimb [8]: 0.00 | Average detailed clinical score, left hind limb [8]: 0.00 | Average detailed clinical score, right forelimb [8]: 0.00 | Average detailed clinical score, right hind limb [8]: 0.00 | Average detailed clinical score, score [8]: 0.00 | Average overall clinical score [8]: 0 | Overall Clinical Score [8]: 0 | Average detailed clinical score, left forelimb [9]: 0.00 | Average detailed clinical score, left hind limb [9]: 0.00 | Average detailed clinical score, right forelimb [9]: 0.00 | Average detailed clinical score, right hind limb [9]: 0.00 | Average detailed clinical score, score [9]: 0.00 | Average overall clinical score [9]: 0 | Average animal paw volume [10]: 1.35 mL | Average animal paw volume percent change (%) [10]: 1.60% | Average animal paw volume [11]: 1.34 mL | Average animal paw volume percent change (%) [11]: 1.44% | Average animal paw volume [12]: 1.34 mL | Average animal paw volume percent change (%) [12]: 1.64% | Average animal paw volume [13]: 1.35 mL | Average animal paw volume percent change (%) [13]: 1.41% | Average animal paw volume [14]: 1.34 mL | Average animal paw volume percent change (%) [14]: 1.63% | Average animal paw volume [15]: 1.33 mL | Average animal paw volume percent change (%) [15]: 1.59% | Average detailed clinical score, left forelimb [16]: 0.00 | Average detailed clinical score, left hind limb [16]: 0.00 | Average detailed clinical score, right forelimb [16]: 0.00 | Average detailed clinical score, right hind limb [16]: 0.00 | Average detailed clinical score, score [16]: 0.00 | Average overall clinical score [16]: 0 | Overall Clinical Score [16]: 0 | Average detailed clinical score, left forelimb [17]: 0.00 | Average detailed clinical score, left hind limb [17]: 0.00 | Average detailed clinical score, right forelimb [17]: 0.00 | Average detailed clinical score, right hind limb [17]: 0.00 | Average detailed clinical score, score [17]: 0.00 | Average overall clinical score [17]: 0 | Overall Clinical Score [17]: 0 | Average detailed clinical score, left forelimb [18]: 0.00 | Average detailed clinical score, left hind limb [18]: 0.00 | Average detailed clinical score, right forelimb [18]: 0.00 | Average detailed clinical score, right hind limb [18]: 0.00 | Average detailed clinical score, score [18]: 0.00 | Average overall clinical score [18]: 0 | Average animal paw volume [19]: 1.38 mL | Average animal paw volume percent change (%) [19]: 4.24% | Average animal paw volume [20]: 1.37 mL | Average animal paw volume percent change (%) [20]: 4.35% | Average animal paw volume [21]: 1.36 mL | Average animal paw volume percent change (%) [21]: 3.32% | Average animal paw volume [22]: 1.42 mL | Average animal paw volume percent change (%) [22]: 6.44% | Average animal paw volume [23]: 1.36 mL | Average animal paw volume percent change (%) [23]: 3.50% | Average animal paw volume [24]: 1.37 mL | Average animal paw volume percent change (%) [24]: 4.40% | Average detailed clinical score, left forelimb [25]: 0.00 | Average detailed clinical score, left hind limb [25]: 0.13 | Average detailed clinical score, right forelimb [25]: 0.25 | Average detailed clinical score, right hind limb [25]: 0.00 | Average detailed clinical score, score [25]: 0.38 | Average overall clinical score [25]: 0 | Overall Clinical Score (Day 12, CIA + Compound A 1 mg/kg, 1 mg/kg): 0 (7×) and 1 | Average detailed clinical score, left forelimb [26]: 0.00 | Average detailed clinical score, left hind limb [26]: 0.25 | Average detailed clinical score, right forelimb [26]: 0.00 | Average detailed clinical score, right hind limb [26]: 0.25 | Average detailed clinical score, score [26]: 0.50 | Average overall clinical score [26]: 0 | Overall Clinical Score (Day 12, CIA + Compound A 3 mg/kg, 3 mg/kg): 0
